According to publication PMC5699933 (Journal of medicinal chemistry, 2017):

Columns and labels:
CYPs = conditions: earlier pharmacokinetic studies; cited from earlier work
[1] = earlier pharmacokinetic studies; cited from earlier work
PAMPA-BBB assay = conditions: in-house conditions; 17 h, 200 μM, 25 °C, triplicate

## CNCCCc1cncc(CCc2cc(C)cc(N)n2)c1 [Compound 6]
CYPs
  CYPs inhibition: very poor
[1]
  human microsome metabolism: little

## CNCc1cccc(-c2cncc(CCc3cc(C)cc(N)n3)c2)c1 [Compound 16, 4-Methyl-6-(2-(5-(3-((methylamino)methyl)phenyl)pyridin-3-yl)ethyl)pyridin-2-amine]
PAMPA-BBB assay
  Determined Pe: 5.56 10^−6 cm s^−1

## CNCc1cccc(-c2cc(F)cc(CCc3cc(C)cc(N)n3)c2)c1 [Compound 18, 6-(2-(5-Fluoro-3′-((methylamino)methyl)-[1,1′-biphenyl]-3-yl)ethyl)-4-methylpyridin-2-amine]
PAMPA-BBB assay
  Determined Pe: 17.41 10^−6 cm s^−1

## CNCCCN1c2ccccc2CCc2ccccc21 [Desipramine]
PAMPA-BBB assay
  Determined Pe: 20.52 ± 0.64 10^−6 cm s^−1

## Cn1c(=O)c2[nH]cnc2n(C)c1=O.O [Theophylline]
PAMPA-BBB assay
  Determined Pe: 0.15 ± 0.04 10^−6 cm s^−1
